The supplement of paper PMC7840683
Structures can show the parent of a compound that is named as a salt. ± gives the standard deviation of the averaged measurements.

Test system: HepaRG
Assay: LDH release cytotoxicity, % of total lysis control; higher = more cytotoxic
Conditions: 48 h
Outline: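 Duplicate wells of single-lot HepaRG cells, grown on collagen I-coated 96-well plates, received eight-point half-log series of test chemicals with 100 µM as the top concentration. Exposure lasted 48 h in serum-free induction medium with 0.5% DMSO, while total lysis wells received 0.1% Triton X. Resorufin fluorescence (CytoTox-ONE, Tecan Safire) was used to quantify LDH leaked into 50 µL of spent medium. Values for percent cytotoxicity were normalized to on-plate vehicle and total lysis controls and averaged across the duplicates.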

| SMILES | LDH release cytotoxicity (0.1 µM) | LDH release cytotoxicity (1 µM) | LDH release cytotoxicity (3.16228 µM) | LDH release cytotoxicity (10 µM) | LDH release cytotoxicity (31.6228 µM) | LDH release cytotoxicity (100 µM) | LDH release cytotoxicity (0.03162 µM) | LDH release cytotoxicity (0.3162278 µM) | further results |
| --- | --- | --- | --- | --- | --- | --- | --- | --- | --- |
| CN(C)C(=O)Nc1ccc(Cl)cc1 [Monuron] | -1.82 ± 0.043% | -2.41 ± 0.67% | -2.49 ± 0.18% | -1.39 ± 0.62% | -0.555 ± 1.5% | 0.589 ± 0.75% | – | – | LDH release cytotoxicity (0.031623 µM): -1.01 ± 1.8%; LDH release cytotoxicity (0.316228 µM): -2.23 ± 0.4% |
| COc1cc(OC)nc(NC(=O)NS(=O)(=O)c2ncccc2OCC(F)(F)F)n1 [Trifloxysulfuron-sodium] | -0.662 ± 0.68% | -1.75 ± 1.3% | -1.37 ± 0.17% | -1.12 ± 0.68% | -1.62 ± 0.26% | 0.885 ± 0.33% | -1.39 ± 0.15% | -1.7 ± 1.1% | – |
| CC(C)C(=O)OCC(C)(C)C(OC(=O)C(C)C)C(C)C (configuration not stated) [2,2,4-Trimethyl-1,3-pentanediol diisobutyrate] | -3.46 ± 0.69% | -2.95 ± 0.15% | -3.05 ± 0.42% | -2.18 ± 0.16% | -2.05 ± 0.51% | 0.686 ± 0.88% | -1.97 ± 1.2% | -3.48 ± 0.61% | – |
| CN(C)C(=O)Nc1ccc(Cl)c(Cl)c1 [Diuron] | – | – | – | – | – | – | – | – | LDH release cytotoxicity (0.0314647 µM): -0.32 ± 1.2%; LDH release cytotoxicity (0.0995 µM): -1.23 ± 1.5%; LDH release cytotoxicity (0.3146466 µM): -1.57 ± 0.64%; LDH release cytotoxicity (0.995 µM): -0.727 ± 0.72%; LDH release cytotoxicity (3.14647 µM): -1.47 ± 0.9%; LDH release cytotoxicity (9.95 µM): -1.77 ± 0.071%; LDH release cytotoxicity (31.4647 µM): -0.974 ± 0.13%; LDH release cytotoxicity (99.5 µM): 19 ± 4.1% |
| CC1COC(Cn2cncn2)(c2ccc(Oc3ccc(Cl)cc3)cc2Cl)O1 (configuration not stated) [Difenoconazole] | -1.4 ± 0.88% | -1.47 ± 0.12% | -0.57 ± 1.1% | -0.701 ± 0.24% | -1.41 ± 0.25% | -0.14 ± 0.82% | -1.39 ± 1.3% | -1.37 ± 0.096% | – |
| CCOP(=S)(Oc1cnc(C(C)(C)C)nc1)OC(C)C (configuration not stated) [Tebupirimfos] | -1.67 ± 1.3% | -2.26 ± 0.87% | -2.34 ± 0.48% | -3.02 ± 0.61% | -2.48 ± 1.2% | -2.06 ± 1.2% | – | – | LDH release cytotoxicity (0.031623 µM): 0.203 ± 2.2%; LDH release cytotoxicity (0.316228 µM): -2.72 ± 0.73% |
| CCC(=O)C(CC(C)N(C)C)(c1ccccc1)c1ccccc1 (configuration not stated) [Methadone hydrochloride] | – | – | – | – | – | – | – | – | LDH release cytotoxicity (0.0229265 µM): -1.18 ± 0.096%; LDH release cytotoxicity (0.0725 µM): -0.8 ± 0.26%; LDH release cytotoxicity (0.2292651 µM): -1.01 ± 0.75%; LDH release cytotoxicity (0.725 µM): -1.59 ± 0.11%; LDH release cytotoxicity (2.29265 µM): -0.919 ± 0.09%; LDH release cytotoxicity (7.25 µM): -0.638 ± 0.73%; LDH release cytotoxicity (22.926513 µM): 0.191 ± 1.1%; LDH release cytotoxicity (72.5 µM): 7.87 ± 0.83% |
| CC(C)Nc1nc(Cl)nc(NC(C)C)n1 [Propazine] | -0.918 ± 1.2% | -0.0277 ± 0.68% | -0.787 ± 0.95% | -0.398 ± 0.52% | -0.397 ± 0.52% | -0.828 ± 0.37% | -0.771 ± 1.3% | -0.266 ± 0.027% | – |
| CCC(C)(c1ccc(O)cc1)c1ccc(O)cc1 [Bisphenol B] | 0.29 ± 0.38% | 2.34 ± 1.5% | 1.11 ± 0.43% | 1.29 ± 0.37% | 1.29 ± 0.25% | 4.62 ± 1.9% | -0.0728 ± 0.78% | 0.714 ± 0.49% | – |
| CNC(=O)ON=C(C)SC [Methomyl] | -1.04 ± 0.28% | -0.623 ± 0.49% | -1.04 ± 0.3% | -0.128 ± 0.062% | -1.13 ± 0.27% | -0.0692 ± 0.37% | -0.681 ± 0.27% | -0.724 ± 0.3% | – |
| COP(=O)(OC)OC=C(Cl)Cl [Dichlorvos] | -0.968 ± 0.24% | -0.845 ± 0.11% | -0.267 ± 0.61% | -0.149 ± 0.26% | -0.147 ± 0.48% | 2.09 ± 0.43% | -0.581 ± 0.43% | -1.1 ± 0.092% | – |
| C=C(C)C1Cc2c(ccc3c2OC2COc4cc(OC)c(OC)cc4C2C3=O)O1 (configuration not stated) [Rotenone] | -3.52 ± 0.84% | 4.61 ± 1.4% | 19.6 ± 4.5% | 48.4 ± 1.8% | 71.8 ± 1.5% | 72.3 ± 0.95% | -3.41 ± 0.1% | -4.58 ± 0.21% | – |
| CCC1(c2ccccc2)C(=O)N=C(O)NC1=O (configuration not stated) [Phenobarbital sodium] | -0.9 ± 0.78% | -0.43 ± 0.71% | -0.289 ± 0.44% | -0.0423 ± 0.88% | 0.694 ± 0.48% | 1.83 ± 0.84% | -1.03 ± 0.11% | -1.41 ± 0.58% | – |
| O=c1[nH]cnc2c1ncn2C1CCC(CO)O1 (configuration not stated) [2',3'-Dideoxyinosine] | -1.91 ± 0.031% | -1.29 ± 0.97% | -1.75 ± 0.0016% | -1.3 ± 0.057% | -1.11 ± 1.1% | -0.428 ± 0.43% | -2.26 ± 0.4% | -1.96 ± 1% | – |
| CC1=NC(=S)NC(=O)C1 [6-Methyl-2-thiouracil] | -0.548 ± 0.32% | 0.268 ± 0.56% | 0.0334 ± 0.84% | 0.892 ± 0.68% | 0.733 ± 1.8% | 0.731 ± 1.2% | -1.61 ± 0.11% | 0.567 ± 0.55% | – |
| OCCCBr [3-Bromo-1-propanol] | -0.845 ± 0.1% | -0.314 ± 0.33% | -0.692 ± 0.86% | -0.0559 ± 0.79% | -0.26 ± 0.065% | 9.22 ± 1.3% | 0.25 ± 1.2% | -1.144 ± 0.0048% | – |
| N#CC(Br)Br [Dibromoacetonitrile] | -3.22 ± 0.87% | -2.98 ± 0.13% | -2.65 ± 0.41% | -2.89 ± 1.6% | -2.1 ± 0.82% | -0.937 ± 0.31% | -2.24 ± 0.96% | -2.74 ± 0.21% | – |
| O=C(O)C(Cl)Cl [Dichloroacetic acid] | -1.93 ± 0.89% | -2.38 ± 1.1% | -2.6 ± 1.3% | -1.71 ± 0.32% | -2.34 ± 0.81% | 0.0869 ± 1.1% | -1.93 ± 1.3% | -1.5 ± 1.6% | – |
| CCN(CC)C(=O)c1cccc(C)c1 [DEET] | – | – | – | – | – | – | – | – | LDH release cytotoxicity (0.03305 µM): -1.66 ± 0.043%; LDH release cytotoxicity (0.1045 µM): -2.06 ± 0.73%; LDH release cytotoxicity (0.330458 µM): -2.58 ± 0.48%; LDH release cytotoxicity (1.045 µM): -2.44 ± 0.8%; LDH release cytotoxicity (3.30458 µM): -2.59 ± 0.4%; LDH release cytotoxicity (10.45 µM): -2.53 ± 0.61%; LDH release cytotoxicity (33.0458 µM): -1.85 ± 1%; LDH release cytotoxicity (104.5 µM): -1.16 ± 0.13% |
